Data reported in patent US20210041441A1, “DISCOVERY OF NOVEL MOLECULES AND REPURPOSED DRUGS FOR RAS FAMILY GTPases” (UNM Rainforest Innovations, priority 2018, published 2021).
“Also recorded” adds a separate entry of the source. Where a name gives a salt, the structure may show the parent alone. Each block holds one molecule with its values, some of them ahead of it.

System: Ras family GTPases (KRas WT, G12v, G13d, G12a, G12c, G12d, Q61H, Q61L, Q61R; HRas WT, HRas G12v; CDC42 WT, CDC42 L61; Rac1 WT, Rac1 L61)
Assay: Multiplex flow cytometry Bodipy FL-GTP binding, compound screen and dose response
Conditions: for class of modulation of Bodipy-GTP binding to Ras family GTPases (pan activator, pan inhibitor, selective inhibitor, mixed activity modulator): multiplex, 10 nM Bodipy FL-GTP, compound 100-0.015 μM, normalized to DMSO; for selectivity among GTPases (RAS vs non-RAS, individual proteins) / activity or affinity relative to other compounds: multiplex dose response

class of modulation of Bodipy-GTP binding to Ras family GTPases (pan activator, pan inhibitor, selective inhibitor, mixed activity modulator): pan inhibitors
Molecule: Oc1ccc2ccccc2c1SSc1c(O)ccc2ccccc12 [IPA 3]

Molecule: Cc1cccc(Nc2ccccc2C(=O)O)c1C [Mefenamic Acid]
class of modulation of Bodipy-GTP binding to Ras family GTPases (pan activator, pan inhibitor, selective inhibitor, mixed activity modulator): pan activators
class of modulation of Bodipy-GTP binding to Ras family GTPases (pan activator, pan inhibitor, selective inhibitor, mixed activity modulator) (listed as mefenamic acid): Pan activators

class of modulation of Bodipy-GTP binding to Ras family GTPases (pan activator, pan inhibitor, selective inhibitor, mixed activity modulator): pan inhibitors
Molecule: O=c1c(O)c(-c2ccc(O)c(O)c2)oc2cc(O)ccc12 [Fisetin]

class of modulation of Bodipy-GTP binding to Ras family GTPases (pan activator, pan inhibitor, selective inhibitor, mixed activity modulator): pan activators
Molecule: A-7 hydrochloride

Molecule: CN(C)CCCn1cc(C2=C(c3c[nH]c4ccccc34)C(=O)NC2=O)c2ccccc21 [GF109203X]
selectivity among GTPases (RAS vs non-RAS, individual proteins): selective activator non-RAS
class of modulation of Bodipy-GTP binding to Ras family GTPases (pan activator, pan inhibitor, selective inhibitor, mixed activity modulator): modulators with mixed activity

class of modulation of Bodipy-GTP binding to Ras family GTPases (pan activator, pan inhibitor, selective inhibitor, mixed activity modulator): mixed activity modulators
class of modulation of Bodipy-GTP binding to Ras family GTPases (pan activator, pan inhibitor, selective inhibitor, mixed activity modulator) (listed as pimethixene maleate): modulators with mixed activity
class of modulation of Bodipy-GTP binding to Ras family GTPases (pan activator, pan inhibitor, selective inhibitor, mixed activity modulator) (listed as pimethixine maleate): mixed activity
Molecule: CN1CCC(=C2c3ccccc3Sc3ccccc32)CC1 [Pimethixene Maleate]

class of modulation of Bodipy-GTP binding to Ras family GTPases (pan activator, pan inhibitor, selective inhibitor, mixed activity modulator): pan activators
class of modulation of Bodipy-GTP binding to Ras family GTPases (pan activator, pan inhibitor, selective inhibitor, mixed activity modulator) (listed as fluribuprofen): Pan activators
Molecule: CC(C(=O)O)c1ccc(-c2ccccc2)c(F)c1 (centres unmarked) [Flurbiprofen]

selectivity among GTPases (RAS vs non-RAS, individual proteins): RAS activator/non-RAS inhibitor
class of modulation of Bodipy-GTP binding to Ras family GTPases (pan activator, pan inhibitor, selective inhibitor, mixed activity modulator): mixed activity modulators
class of modulation of Bodipy-GTP binding to Ras family GTPases (pan activator, pan inhibitor, selective inhibitor, mixed activity modulator) (listed as B-lapachone): mixed activity
class of modulation of Bodipy-GTP binding to Ras family GTPases (pan activator, pan inhibitor, selective inhibitor, mixed activity modulator) (listed as Beta-lapachone): modulators with mixed activity
Molecule: CC1(C)CCC2=C(O1)c1ccccc1C(=O)C2=O [Beta Lapachone]

class of modulation of Bodipy-GTP binding to Ras family GTPases (pan activator, pan inhibitor, selective inhibitor, mixed activity modulator): pan activators
class of modulation of Bodipy-GTP binding to Ras family GTPases (pan activator, pan inhibitor, selective inhibitor, mixed activity modulator) (listed as salsalate): Pan activators
Molecule: O=C(Oc1ccccc1C(=O)O)c1ccccc1O [Salsalate]

class of modulation of Bodipy-GTP binding to Ras family GTPases (pan activator, pan inhibitor, selective inhibitor, mixed activity modulator): pan inhibitors
class of modulation of Bodipy-GTP binding to Ras family GTPases (pan activator, pan inhibitor, selective inhibitor, mixed activity modulator) (listed as GSK3787): Pan inhibitors
Molecule: O=C(NCCS(=O)(=O)c1ccc(C(F)(F)F)cn1)c1ccc(Cl)cc1 [GSK 3787]

class of modulation of Bodipy-GTP binding to Ras family GTPases (pan activator, pan inhibitor, selective inhibitor, mixed activity modulator): mixed activity modulators
class of modulation of Bodipy-GTP binding to Ras family GTPases (pan activator, pan inhibitor, selective inhibitor, mixed activity modulator) (listed as ipsapirone): modulators with mixed activity
Molecule: O=C1c2ccccc2S(=O)(=O)N1CCCCN1CCN(c2ncccn2)CC1 [Ipsapirone]

class of modulation of Bodipy-GTP binding to Ras family GTPases (pan activator, pan inhibitor, selective inhibitor, mixed activity modulator): pan activators
class of modulation of Bodipy-GTP binding to Ras family GTPases (pan activator, pan inhibitor, selective inhibitor, mixed activity modulator) (listed as fufenamic acid): Pan activators
Molecule: O=C(O)c1ccccc1Nc1cccc(C(F)(F)F)c1 [Flufenamic Acid]

Molecule: Cc1ccc(Cl)c(Nc2ccccc2C(=O)O)c1Cl [Meclofenamic acid sodium salt monohydrate]
class of modulation of Bodipy-GTP binding to Ras family GTPases (pan activator, pan inhibitor, selective inhibitor, mixed activity modulator) (listed as meclofenamic acid sodium salt monohydrate, sodium salt monohydrate): Pan activators
class of modulation of Bodipy-GTP binding to Ras family GTPases (pan activator, pan inhibitor, selective inhibitor, mixed activity modulator) (sodium salt monohydrate): pan activators

class of modulation of Bodipy-GTP binding to Ras family GTPases (pan activator, pan inhibitor, selective inhibitor, mixed activity modulator): pan inhibitors
Molecule: N#CSc1cc(SC#N)c(N)nc1N [PR-619]

class of modulation of Bodipy-GTP binding to Ras family GTPases (pan activator, pan inhibitor, selective inhibitor, mixed activity modulator): pan inhibitors
class of modulation of Bodipy-GTP binding to Ras family GTPases (pan activator, pan inhibitor, selective inhibitor, mixed activity modulator) (listed as Diffractaic Acid): Pan inhibitors
Molecule: COc1cc(C)c(C(=O)Oc2cc(C)c(C(=O)O)c(O)c2C)c(OC)c1C [Diffractaic acid]

class of modulation of Bodipy-GTP binding to Ras family GTPases (pan activator, pan inhibitor, selective inhibitor, mixed activity modulator): mixed activity modulators
class of modulation of Bodipy-GTP binding to Ras family GTPases (pan activator, pan inhibitor, selective inhibitor, mixed activity modulator) (listed as darapladib): modulators with mixed activity
Molecule: CCN(CC)CCN(Cc1ccc(-c2ccc(C(F)(F)F)cc2)cc1)C(=O)Cn1c(SCc2ccc(F)cc2)nc(=O)c2c1CCC2 [Darapladib]

class of modulation of Bodipy-GTP binding to Ras family GTPases (pan activator, pan inhibitor, selective inhibitor, mixed activity modulator): mixed activity modulators
Molecule: Cc1cc(I)ccc1Nc1c(C(=O)NOCC2CC2)cc(F)c(F)c1F [PD 198306]
class of modulation of Bodipy-GTP binding to Ras family GTPases (pan activator, pan inhibitor, selective inhibitor, mixed activity modulator) (listed as PD198306): mixed activity with mostly activation, but some inhibition as well; also recorded: modulators with mixed activity

class of modulation of Bodipy-GTP binding to Ras family GTPases (pan activator, pan inhibitor, selective inhibitor, mixed activity modulator): PanActivators
Molecule: CC1=CC(=O)c2ccccc2C1=O [Menindione]

Molecule: COc1ccc2cc([C@@H](C)C(=O)[O-])ccc2c1.[Na+] [(R)-Naproxen sodium salt]
activity or affinity relative to other compounds: greater activity than did the naproxen sample
class of modulation of Bodipy-GTP binding to Ras family GTPases (pan activator, pan inhibitor, selective inhibitor, mixed activity modulator) (listed as (R)-naproxen sodium salt, sodium salt): Pan activators
class of modulation of Bodipy-GTP binding to Ras family GTPases (pan activator, pan inhibitor, selective inhibitor, mixed activity modulator) (sodium salt): pan activators

Molecule: CC(C)Cc1ccc(C(C)C(=O)O)cc1 (stereo not drawn) [S-(+)-Ibuprofen]
activity or affinity relative to other compounds: lower affinity than the mixture

Molecule: COc1ccc2cc([C@H](C)C(=O)O)ccc2c1 [Naproxen]
class of modulation of Bodipy-GTP binding to Ras family GTPases (pan activator, pan inhibitor, selective inhibitor, mixed activity modulator): pan activators
class of modulation of Bodipy-GTP binding to Ras family GTPases (pan activator, pan inhibitor, selective inhibitor, mixed activity modulator) (listed as naproxen): Pan activators

Molecule: CCC(Cc1c(I)cc(I)c(N)c1I)C(=O)O (centres unmarked) [Iopanic acid]
class of modulation of Bodipy-GTP binding to Ras family GTPases (pan activator, pan inhibitor, selective inhibitor, mixed activity modulator): pan activators
class of modulation of Bodipy-GTP binding to Ras family GTPases (pan activator, pan inhibitor, selective inhibitor, mixed activity modulator) (listed as iopanic acid): activators

Molecule: Cc1c(Cl)cccc1Nc1ccccc1C(=O)O [Tolfenamic acid]
class of modulation of Bodipy-GTP binding to Ras family GTPases (pan activator, pan inhibitor, selective inhibitor, mixed activity modulator): pan activators
class of modulation of Bodipy-GTP binding to Ras family GTPases (pan activator, pan inhibitor, selective inhibitor, mixed activity modulator) (listed as tolfenamic acid): Pan activators

class of modulation of Bodipy-GTP binding to Ras family GTPases (pan activator, pan inhibitor, selective inhibitor, mixed activity modulator): pan activators
class of modulation of Bodipy-GTP binding to Ras family GTPases (pan activator, pan inhibitor, selective inhibitor, mixed activity modulator) (listed as dioxybenzone): activators
Molecule: COc1ccc(C(=O)c2ccccc2O)c(O)c1 [Dioxybenzone]

class of modulation of Bodipy-GTP binding to Ras family GTPases (pan activator, pan inhibitor, selective inhibitor, mixed activity modulator): pan inhibitors
Molecule: Nc1nc2ncc(CNc3ccc(C(=O)N[C@@H](CCC(=O)O)C(=O)O)cc3)nc2c(=O)[nH]1 [Folic acid]
